In US20240124486A1, “MACROCYCLIC TLR7 AGONIST, PREPARATION METHOD THEREFOR, PHARMACEUTICAL COMPOSITION AND USE THEREOF” (SHANGHAI VISONPHARMA CO., LTD., priority 2020, published 2024):

Columns and labels:
[1] = test system: human peripheral blood mononuclear cells; assay: IFN-α production by human peripheral blood mononuclear cells stimulated by compounds (ELISA); format: cell-based; details: human PBMC, about 8 hours, supernatant ELISA
Method: • 1. The frozen human peripheral blood mononuclear cells (Miaotong Biotechnology Co., LTD., PB010C) were dissolved in water bath at 37° C. After counting, the cells were diluted to 0.2M/mL, and 150 uL/well was added to the 96-well cell culture plate, and the cells were incubated for 40 hours. • 2. The test compounds were weighed and prepared with DMSO at a concentration of 10 mM. DMSO was used to dilute the test compounds by a 10-fold gradient, with a total of four concentration gradients. The highest concentration was 400 μM. • 3. The test compounds, DMSO control and positive controls were diluted 100 times with cell culture medium (RPMI 1640 cell medium, Gibco), and 50 μL was added to 96-well cell culture plates. • 4. The cells were incubated at 37° C. for about 8 hours, and the supernatant was collected by centrifugation. The level of IFN-α in the supernatant was determined by ELISA (IFN-α ELISA kit, Dakewe). • 5. Light absorption at 450 nm was measured by microplate reader, and IFN-α level in culture supernatant was quantified according to the standard curve.

human TLR7 = target: T1, human TLR7 (Homo sapiens, UniProt Q9NYK1); assay: Agonistic activity on human TLR7 in HEK-Blue hTLR7 cell line (QUANTI-Blue reporter); format: cell-based; details: HEK-Blue hTLR7 cells, 16-22 h incubation, absorption at 630 nm; read-out: EC50 value of the agonistic effect on human TLR7
T1 construct: host or cells: HEK-Blue hTLR7 (HEK293-derived reporter cells)
T1 sequence (Q9NYK1 27-1049): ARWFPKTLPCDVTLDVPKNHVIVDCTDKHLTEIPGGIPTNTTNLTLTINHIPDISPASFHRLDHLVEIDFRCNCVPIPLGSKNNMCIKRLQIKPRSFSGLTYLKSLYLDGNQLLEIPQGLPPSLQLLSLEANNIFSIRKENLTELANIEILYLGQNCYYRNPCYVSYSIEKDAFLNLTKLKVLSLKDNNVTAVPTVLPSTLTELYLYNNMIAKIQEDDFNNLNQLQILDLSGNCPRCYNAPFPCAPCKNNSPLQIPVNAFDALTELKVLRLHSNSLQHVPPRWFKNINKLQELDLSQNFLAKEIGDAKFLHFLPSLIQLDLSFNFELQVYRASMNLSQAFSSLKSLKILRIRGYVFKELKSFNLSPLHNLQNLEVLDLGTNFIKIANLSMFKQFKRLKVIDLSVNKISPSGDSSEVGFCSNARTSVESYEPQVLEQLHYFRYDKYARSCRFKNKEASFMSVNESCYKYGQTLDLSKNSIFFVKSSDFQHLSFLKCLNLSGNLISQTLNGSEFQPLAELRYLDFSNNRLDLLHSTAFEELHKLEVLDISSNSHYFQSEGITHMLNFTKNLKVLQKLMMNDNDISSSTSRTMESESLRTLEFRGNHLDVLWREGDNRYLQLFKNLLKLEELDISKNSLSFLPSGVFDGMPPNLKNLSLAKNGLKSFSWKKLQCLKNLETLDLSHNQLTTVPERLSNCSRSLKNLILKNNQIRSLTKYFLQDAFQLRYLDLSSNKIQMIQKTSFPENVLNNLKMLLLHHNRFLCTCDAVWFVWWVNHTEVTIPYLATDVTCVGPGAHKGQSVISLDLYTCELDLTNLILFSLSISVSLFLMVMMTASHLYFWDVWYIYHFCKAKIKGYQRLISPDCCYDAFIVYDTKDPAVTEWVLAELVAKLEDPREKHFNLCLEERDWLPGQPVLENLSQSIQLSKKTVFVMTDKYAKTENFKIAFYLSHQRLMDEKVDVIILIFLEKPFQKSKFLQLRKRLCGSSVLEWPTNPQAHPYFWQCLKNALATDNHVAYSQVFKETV
Method: The TLR7 agonistic activity of the compounds of the invention in HEK-Blue™ hTLR7 cell line with stable expression of human TLR7 were assayed using the following method: • 1. Weighed the test compounds and prepared stock solutions with DMSO (Sigma) at a concentration of 10 mM. […] The highest concentration was 1 mM. • 2. The test compounds and DMSO control were diluted 10-fold in DPBS buffer (Gibco) and then added to a 96-well cell culture plate (Corning) at a volume of 20 μL/well. • 3. HEK-Blue™ hTLR7 cells (Invivogen) were digested with cell separation solution (Gibco), and counted (TC-20 cell counter, Bio-rad). Cells were diluted to 4.4E5/ml using DMEM cell medium (Gibco). Added the cells to a 96-well cell culture plate at a volume of 180 μL/well. The cells were incubated for 16-22 h at 37° C. in a 5% CO2 incubator. • 4. Prepared QUANTI-Blue detection reagent (Invivogen), and added into a new 96-well plate at a volume of 180 μL/well. Twenty μL of cell culture supernatant was transferred from the cell culture plate and added to the 96-well plate and incubated at 37° C. for 1-3 hours. • 5. Neo2 multifunctional microplate reader (Bio-Tek) was used to measure the optical absorption at 630 nm, and the EC50 was calculated by GraphPad Prism.
The agonistic effect of the compounds of the invention on human TLR7 can be determined by the above experiments, and the measured EC50 value is shown in Table 1.

Structure (SMILES) | IFN-α concentration post stimulation ([1]; compound 0.1 nM) [pg/mL] | IFN-α concentration post stimulation ([1]; compound 1 nM) [pg/mL] | IFN-α concentration post stimulation ([1]; compound 10 nM) [pg/mL] | EC50 (human TLR7) [nM]
CC(C)N1CCc2cc3cc(c2C1)CCCCCOc1nc(N)c2[nH]c(=O)n(c2n1)C3 [Compound I-50] | 1509 | 2615 | 2173 | 2
Nc1nc2nc3c1[nH]c(=O)n3Cc1ccc(O)c(c1)C/C=C/CCO2 [Reference 3, reference compound] | 8 | 9 | 284 | 41
